ChEMBL document CHEMBL1201862, “PubChem BioAssay data set” (2004)
“And” between values parts separate entries of the source, which are not always exact repeats. Identical values can stand only once.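 Exposure lasted 48 hours, with cells grown in 96-well plates and compounds tested at five concentrations. GI50 is the concentration that inhibits growth by half.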 The source made the active and inactive calls. Cut-off read from the data, not from the text of the source: active = GI50 up to about 1.1 µM and inactive = higher.

What was measured:
Assay in all cases: NCI anticancer screen, dose series, 48 h
CAKI-1 = system: CAKI-1
CCRF-CEM = system: CCRF-CEM
COLO 205 = system: COLO 205
DLD-1 = system: DLD-1
HCC 2998 = system: HCC 2998
HCT-15 = system: HCT-15
HOP-92 = system: HOP-92
HT-29 = system: HT-29
IGROV-1 = system: IGROV-1
K562 = system: K562
KM-20L2 = system: KM-20L2
KM12 = system: KM12
LXFL 529 = system: LXFL 529
M14 = system: M14
M19-MEL = system: M19-MEL
MOLT-4 = system: MOLT-4
Malme-3M = system: Malme-3M
NCI-H23 = system: NCI-H23
NCI-H522 = system: NCI-H522
OVCAR-3 = system: OVCAR-3
OVCAR-4 = system: OVCAR-4
OVCAR-5 = system: OVCAR-5
OVCAR-8 = system: OVCAR-8
RXF 393 = system: RXF 393
SF-295 = system: SF-295
SK-MEL-28 = system: SK-MEL-28
SK-MEL-2 = system: SK-MEL-2
SK-MEL-5 = system: SK-MEL-5
SK-OV-3 = system: SK-OV-3
SN12C = system: SN12C
SNB-19 = system: SNB-19
SNB-78 = system: SNB-78
SR = system: SR
SW-620 = system: SW-620
TK-10 = system: TK-10
U-251 = system: U-251
UACC-62 = system: UACC-62
UO-31 = system: UO-31
XF498 = system: XF498
786-0 = system: 786-0
A498 = system: A498
A549 = system: A549
ACHN = system: ACHN
BT-549 = system: BT-549
DU-145 = system: DU-145
EKVX = system: EKVX
HCT-116 = system: HCT-116
HL-60 = system: HL-60
HOP-62 = system: HOP-62
Hs-578T = system: Hs-578T
LOX IMVI = system: LOX IMVI
MCF7 = system: MCF7
MDA-MB-231 = system: MDA-MB-231
MDA-MB-435 = system: MDA-MB-435
MDA-N = system: MDA-N
NCI-H226 = system: NCI-H226
NCI/ADR-RES = system: NCI/ADR-RES
PC-3 = system: PC-3
SF-268 = system: SF-268
SF-539 = system: SF-539
SNB-75 = system: SNB-75
T47D = system: T47D
UACC-257 = system: UACC-257
DMS-114 = system: DMS-114
HOP-18 = system: HOP-18
NCI-H460 = system: NCI-H460
RPMI-8226 = system: RPMI-8226

CC1=N/C(=C\c2ccc(C)cc2)C(=O)O1
GI50 (CAKI-1): > 100 µM (inactive)
GI50 (CCRF-CEM): > 100 µM (inactive)
GI50 (COLO 205): > 100 µM (inactive)
GI50 (DLD-1): > 100 µM (inactive)
GI50 (HCC 2998): > 100 µM (inactive)
GI50 (HCT-15): > 100 µM
GI50 (HOP-92): > 100 µM (inactive)
GI50 (HT-29): > 100 µM (inactive)
GI50 (IGROV-1): > 100 µM (inactive)
GI50 (K562): > 100 µM (inactive)
GI50 (KM-20L2): > 100 µM (inactive)
GI50 (KM12): > 100 µM (inactive)
GI50 (LXFL 529): > 100 µM (inactive)
GI50 (M14): > 100 µM (inactive)
GI50 (M19-MEL): > 100 µM (inactive)
GI50 (MOLT-4): > 100 µM (inactive)
GI50 (Malme-3M): > 100 µM (inactive)
GI50 (NCI-H23): > 100 µM (inactive)
GI50 (NCI-H522): > 100 µM (inactive)
GI50 (OVCAR-3): > 100 µM (inactive)
GI50 (OVCAR-4): > 100 µM (inactive)
GI50 (OVCAR-5): > 100 µM (inactive)
GI50 (OVCAR-8): > 100 µM (inactive)
GI50 (RXF 393): > 100 µM (inactive)
GI50 (SF-295): > 100 µM (inactive)
GI50 (SK-MEL-28): > 100 µM (inactive)
GI50 (SK-MEL-2): > 100 µM (inactive)
GI50 (SK-MEL-5): > 100 µM (inactive)
GI50 (SK-OV-3): > 100 µM (inactive)
GI50 (SN12C): > 100 µM (inactive)
GI50 (SNB-19): > 100 µM (inactive)
GI50 (SNB-78): > 100 µM (inactive)
GI50 (SR): > 100 µM (inactive)
GI50 (SW-620): > 100 µM (inactive)
GI50 (TK-10): > 100 µM (inactive)
GI50 (U-251): > 100 µM (inactive)
GI50 (UACC-62): > 100 µM (inactive)
GI50 (UO-31): > 100 µM (inactive)
GI50 (XF498): > 100 µM (inactive)

COc1cc2c(cc1OC)C1Cc3cc(OC)c(OC)cc3C(C2)N1C
GI50 (786-0): > 75 µM (inactive)
GI50 (A498): > 75 µM (inactive)
GI50 (A549): > 100 µM (inactive)
GI50 (ACHN): > 100 µM (inactive)
GI50 (BT-549): > 75 µM (inactive)
GI50 (CAKI-1): 85.1 µM (inactive)
GI50 (COLO 205): > 75 µM (inactive)
GI50 (DLD-1): > 100 µM (inactive)
GI50 (DU-145): > 75 µM (inactive)
GI50 (EKVX): > 100 µM (inactive)
GI50 (HCC 2998): > 75 µM (inactive)
GI50 (HCT-116): 26.9 µM (inactive)
GI50 (HCT-15): > 100 µM
GI50 (HL-60): 14.9 µM (inactive)
GI50 (HOP-62): > 75 µM (inactive) and 44.3 µM (inactive)
GI50 (HOP-92): 7.71 µM (inactive)
GI50 (Hs-578T): > 75 µM (inactive)
GI50 (IGROV-1): > 75 µM (inactive)
GI50 (K562): > 100 µM (inactive)
GI50 (KM-20L2): > 100 µM (inactive)
GI50 (KM12): 44.3 µM (inactive)
GI50 (LOX IMVI): 48 µM (inactive)
GI50 (LXFL 529): > 100 µM (inactive)
GI50 (M14): > 100 µM (inactive)
GI50 (MCF7): > 75 µM (inactive)
GI50 (MDA-MB-231): 0.0297 µM (active)
GI50 (MDA-MB-435): > 75 µM (inactive)
GI50 (MDA-N): 63.1 µM (inactive)
GI50 (MOLT-4): > 75 µM (inactive)
GI50 (Malme-3M): > 75 µM (inactive)
GI50 (NCI-H226): > 75 µM (inactive)
GI50 (NCI-H23): > 100 µM (inactive) and 54.7 µM (inactive)
GI50 (NCI-H522): > 100 µM (inactive)
GI50 (NCI/ADR-RES): > 75 µM (inactive)
GI50 (OVCAR-3): > 100 µM (inactive)
GI50 (OVCAR-4): > 100 µM (inactive)
GI50 (OVCAR-5): > 100 µM (inactive)
GI50 (OVCAR-8): > 100 µM (inactive)
GI50 (PC-3): > 75 µM (inactive)
GI50 (RXF 393): > 75 µM (inactive)
GI50 (SF-268): > 100 µM (inactive)
GI50 (SF-295): 40.6 µM (inactive)
GI50 (SF-539): 20.8 µM (inactive)
GI50 (SK-MEL-28): > 100 µM (inactive)
GI50 (SK-MEL-2): > 75 µM (inactive)
GI50 (SK-MEL-5): > 100 µM (inactive)
GI50 (SK-OV-3): > 75 µM (inactive)
GI50 (SN12C): > 100 µM (inactive) and 62.5 µM (inactive)
GI50 (SNB-19): > 100 µM (inactive)
GI50 (SNB-75): > 100 µM (inactive)
GI50 (SNB-78): > 100 µM (inactive)
GI50 (SW-620): > 100 µM (inactive)
GI50 (T47D): > 75 µM (inactive)
GI50 (U-251): > 100 µM (inactive)
GI50 (UACC-257): > 100 µM (inactive)
GI50 (UACC-62): 61.1 µM (inactive)
GI50 (XF498): > 100 µM (inactive)

CC(=O)N1[C@H](C(=O)O)CS[C@H]1c1ccncc1
GI50 (786-0): > 100 µM (inactive)
GI50 (A498): > 100 µM (inactive)
GI50 (A549): > 100 µM (inactive)
GI50 (ACHN): > 100 µM (inactive)
GI50 (CAKI-1): > 100 µM (inactive)
GI50 (CCRF-CEM): > 100 µM (inactive)
GI50 (COLO 205): > 100 µM (inactive)
GI50 (DLD-1): > 100 µM (inactive)
GI50 (DMS-114): > 100 µM (inactive)
GI50 (EKVX): > 100 µM (inactive)
GI50 (HCC 2998): > 100 µM (inactive)
GI50 (HCT-116): > 100 µM (inactive)
GI50 (HCT-15): > 100 µM
GI50 (HL-60): > 100 µM (inactive)
GI50 (HOP-18): > 100 µM (inactive)
GI50 (HOP-62): > 100 µM (inactive)
GI50 (HOP-92): > 100 µM (inactive)
GI50 (HT-29): > 100 µM (inactive)
GI50 (IGROV-1): > 100 µM (inactive)
GI50 (K562): > 100 µM (inactive)
GI50 (KM-20L2): > 100 µM (inactive)
GI50 (KM12): > 100 µM (inactive)
GI50 (LOX IMVI): > 100 µM (inactive)
GI50 (LXFL 529): > 100 µM (inactive)
GI50 (M14): > 100 µM (inactive)
GI50 (M19-MEL): > 100 µM (inactive)
GI50 (MOLT-4): > 100 µM (inactive)
GI50 (Malme-3M): > 100 µM (inactive)
GI50 (NCI-H226): > 100 µM (inactive)
GI50 (NCI-H23): > 100 µM (inactive)
GI50 (NCI-H460): > 100 µM (inactive)
GI50 (OVCAR-3): > 100 µM (inactive)
GI50 (OVCAR-4): > 100 µM (inactive)
GI50 (OVCAR-5): > 100 µM (inactive)
GI50 (OVCAR-8): 32.7 µM (inactive)
GI50 (RPMI-8226): > 100 µM (inactive)
GI50 (RXF 393): > 100 µM (inactive)
GI50 (SF-268): > 100 µM (inactive)
GI50 (SF-295): > 100 µM (inactive)
GI50 (SF-539): > 100 µM (inactive)
GI50 (SK-MEL-28): > 100 µM (inactive)
GI50 (SK-MEL-5): > 100 µM (inactive)
GI50 (SN12C): > 100 µM (inactive)
GI50 (SNB-19): > 100 µM (inactive)
GI50 (SNB-75): > 100 µM (inactive)
GI50 (SNB-78): > 100 µM (inactive)
GI50 (SR): > 100 µM (inactive)
GI50 (SW-620): > 100 µM (inactive)
GI50 (TK-10): > 100 µM (inactive)
GI50 (UACC-257): > 100 µM (inactive)
GI50 (UACC-62): > 100 µM (inactive)
GI50 (UO-31): > 100 µM (inactive)
